According to ChEMBL document CHEMBL3431459, “Roche carnitine palmitoyltransferase modulator screening data (supplementary data associated with the publication CHEMBL2216752)”:
Converted amounts (≈) assume the structure as drawn.

Key:
[1] = target: T1, Carnitine O-palmitoyltransferase 1, muscle isoform (Homo sapiens, UniProt Q92523); test: SUPPLEMENTARY: Inhibition of Carnitine palmitoyltransferase 1, muscle isoform; parameters: species or system Muscle tissue
T1 sequence (Q92523 whole entry): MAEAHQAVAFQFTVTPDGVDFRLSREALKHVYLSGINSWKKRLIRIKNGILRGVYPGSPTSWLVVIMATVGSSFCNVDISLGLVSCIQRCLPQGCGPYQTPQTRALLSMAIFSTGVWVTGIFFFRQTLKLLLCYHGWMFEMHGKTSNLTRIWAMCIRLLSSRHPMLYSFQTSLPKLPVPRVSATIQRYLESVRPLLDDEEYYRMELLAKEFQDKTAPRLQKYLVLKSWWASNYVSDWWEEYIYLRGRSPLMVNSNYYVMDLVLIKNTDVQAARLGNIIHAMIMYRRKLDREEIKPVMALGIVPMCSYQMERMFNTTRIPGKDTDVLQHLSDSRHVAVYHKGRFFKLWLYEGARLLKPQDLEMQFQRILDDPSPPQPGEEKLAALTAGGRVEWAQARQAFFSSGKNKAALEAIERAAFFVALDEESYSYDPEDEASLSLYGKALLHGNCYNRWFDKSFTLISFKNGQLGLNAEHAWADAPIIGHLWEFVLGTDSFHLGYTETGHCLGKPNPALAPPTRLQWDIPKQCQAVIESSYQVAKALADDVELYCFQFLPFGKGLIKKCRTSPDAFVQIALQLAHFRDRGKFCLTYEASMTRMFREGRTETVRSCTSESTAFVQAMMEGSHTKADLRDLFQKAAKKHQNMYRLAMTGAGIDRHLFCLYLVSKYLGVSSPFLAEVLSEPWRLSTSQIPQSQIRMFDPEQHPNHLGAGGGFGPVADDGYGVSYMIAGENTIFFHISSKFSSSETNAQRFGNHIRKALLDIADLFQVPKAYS

[2] = target: T2, Carnitine O-palmitoyltransferase 2, mitochondrial (Homo sapiens, UniProt P23786); test: (§1) SUPPLEMENTARY: Inhibition of Carnitine palmitoyltransferase 2
T2 sequence (P23786 whole entry): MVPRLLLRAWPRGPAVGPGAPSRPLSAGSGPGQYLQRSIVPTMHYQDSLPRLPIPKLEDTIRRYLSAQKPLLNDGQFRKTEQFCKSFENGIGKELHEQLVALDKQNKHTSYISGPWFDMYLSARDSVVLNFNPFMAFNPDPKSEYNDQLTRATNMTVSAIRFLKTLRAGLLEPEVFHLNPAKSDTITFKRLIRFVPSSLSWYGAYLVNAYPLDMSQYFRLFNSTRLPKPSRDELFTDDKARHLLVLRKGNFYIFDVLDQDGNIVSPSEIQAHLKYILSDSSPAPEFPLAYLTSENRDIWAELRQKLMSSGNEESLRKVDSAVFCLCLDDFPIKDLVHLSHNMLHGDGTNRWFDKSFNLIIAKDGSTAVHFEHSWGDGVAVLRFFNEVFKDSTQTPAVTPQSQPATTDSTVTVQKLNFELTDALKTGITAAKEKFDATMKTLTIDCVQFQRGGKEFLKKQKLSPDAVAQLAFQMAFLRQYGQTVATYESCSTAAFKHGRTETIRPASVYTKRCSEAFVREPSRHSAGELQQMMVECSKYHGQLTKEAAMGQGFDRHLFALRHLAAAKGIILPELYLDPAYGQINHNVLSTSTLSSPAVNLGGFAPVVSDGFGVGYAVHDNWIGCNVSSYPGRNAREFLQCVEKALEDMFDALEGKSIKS

[3] = target: T3, Carnitine O-palmitoyltransferase 2, mitochondrial (Rattus norvegicus, UniProt P18886); test: as §1
T3 sequence (P18886 whole entry): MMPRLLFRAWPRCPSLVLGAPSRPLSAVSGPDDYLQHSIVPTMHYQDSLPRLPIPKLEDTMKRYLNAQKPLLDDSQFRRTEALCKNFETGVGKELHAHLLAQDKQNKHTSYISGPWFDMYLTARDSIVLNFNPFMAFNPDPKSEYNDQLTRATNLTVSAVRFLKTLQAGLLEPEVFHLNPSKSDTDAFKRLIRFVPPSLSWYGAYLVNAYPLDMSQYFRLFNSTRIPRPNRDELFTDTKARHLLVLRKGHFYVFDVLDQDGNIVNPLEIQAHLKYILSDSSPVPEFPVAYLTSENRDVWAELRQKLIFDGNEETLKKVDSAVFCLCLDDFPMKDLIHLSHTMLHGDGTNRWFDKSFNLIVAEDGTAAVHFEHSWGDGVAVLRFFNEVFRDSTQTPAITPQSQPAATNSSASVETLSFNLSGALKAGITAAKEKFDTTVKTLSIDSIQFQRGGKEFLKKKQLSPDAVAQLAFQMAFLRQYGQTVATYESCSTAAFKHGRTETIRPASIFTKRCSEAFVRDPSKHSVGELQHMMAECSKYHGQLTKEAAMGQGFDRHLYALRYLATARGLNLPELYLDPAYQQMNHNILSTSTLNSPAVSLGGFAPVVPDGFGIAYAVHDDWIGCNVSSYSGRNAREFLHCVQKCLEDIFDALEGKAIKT

[4] = SUPPLEMENTARY: Lyophilisation Solubility Assay (LYSA); type: physicochemical; conditions: read-out: Kinetic_solubility
[5] = SUPPLEMENTARY: Lipophilicity (log D) Determination by high-throughput shake-flask; type: physicochemical; conditions: octanol/water
[6] = SUPPLEMENTARY: PAMPA permeability assay; type: physicochemical; conditions: read-out: Permeability
[7] = target: T4, Carnitine O-palmitoyltransferase 1, liver isoform (Rattus norvegicus, UniProt P32198); test: (§2) SUPPLEMENTARY: Inhibition of Carnitine palmitoyltransferase 1, liver isoform
T4 sequence (P32198 whole entry): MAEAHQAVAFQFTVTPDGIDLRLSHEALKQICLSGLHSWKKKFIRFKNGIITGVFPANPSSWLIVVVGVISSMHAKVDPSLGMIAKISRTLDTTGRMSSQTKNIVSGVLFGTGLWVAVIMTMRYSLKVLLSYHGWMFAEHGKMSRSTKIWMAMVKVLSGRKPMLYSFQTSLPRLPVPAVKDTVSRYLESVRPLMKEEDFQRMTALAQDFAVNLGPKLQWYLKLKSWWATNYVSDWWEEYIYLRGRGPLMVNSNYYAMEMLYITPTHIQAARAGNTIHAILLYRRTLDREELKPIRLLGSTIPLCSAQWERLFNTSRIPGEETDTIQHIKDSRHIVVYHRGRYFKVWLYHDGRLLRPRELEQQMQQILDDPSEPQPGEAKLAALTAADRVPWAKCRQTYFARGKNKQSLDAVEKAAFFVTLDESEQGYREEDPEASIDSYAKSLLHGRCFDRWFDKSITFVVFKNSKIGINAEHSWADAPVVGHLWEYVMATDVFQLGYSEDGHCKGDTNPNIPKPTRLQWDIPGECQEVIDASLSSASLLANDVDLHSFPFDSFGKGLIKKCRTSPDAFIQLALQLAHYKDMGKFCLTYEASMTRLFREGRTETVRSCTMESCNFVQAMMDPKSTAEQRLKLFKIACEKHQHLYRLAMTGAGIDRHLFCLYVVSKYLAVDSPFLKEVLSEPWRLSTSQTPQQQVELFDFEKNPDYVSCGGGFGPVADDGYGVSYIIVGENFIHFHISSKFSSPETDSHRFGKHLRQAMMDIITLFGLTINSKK

[8] = target: T5, Carnitine O-palmitoyltransferase 1, liver isoform (Homo sapiens, UniProt P50416); test: as §2
T5 sequence (P50416 whole entry): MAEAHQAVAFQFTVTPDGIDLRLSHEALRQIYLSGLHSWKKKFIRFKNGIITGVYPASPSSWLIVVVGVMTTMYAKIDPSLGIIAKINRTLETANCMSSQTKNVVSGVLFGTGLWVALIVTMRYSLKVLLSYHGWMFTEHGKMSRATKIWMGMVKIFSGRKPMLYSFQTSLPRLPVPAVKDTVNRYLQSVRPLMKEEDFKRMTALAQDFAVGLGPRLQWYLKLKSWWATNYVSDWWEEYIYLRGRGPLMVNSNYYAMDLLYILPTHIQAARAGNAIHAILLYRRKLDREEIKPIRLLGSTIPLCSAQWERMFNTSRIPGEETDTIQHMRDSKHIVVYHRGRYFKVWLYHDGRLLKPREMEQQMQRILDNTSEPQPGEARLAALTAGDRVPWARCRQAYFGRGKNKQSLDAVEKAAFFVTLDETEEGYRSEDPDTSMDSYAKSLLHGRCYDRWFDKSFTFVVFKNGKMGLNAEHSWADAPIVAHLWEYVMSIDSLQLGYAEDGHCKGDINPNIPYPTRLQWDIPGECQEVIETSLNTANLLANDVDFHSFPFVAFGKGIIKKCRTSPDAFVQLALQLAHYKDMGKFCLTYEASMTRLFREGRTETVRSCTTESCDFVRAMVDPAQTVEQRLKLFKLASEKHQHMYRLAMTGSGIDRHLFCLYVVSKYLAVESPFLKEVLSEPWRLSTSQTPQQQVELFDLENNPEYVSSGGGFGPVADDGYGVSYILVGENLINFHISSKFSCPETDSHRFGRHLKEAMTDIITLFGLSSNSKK

Structure (SMILES)	IC50 [1] [nM]	IC50 [2] [nM]	IC50 [3] [nM]	solubility kinetic [4] [µg/mL]	logD [5]	Papp [6] [×10⁻⁶ cm/s]	IC50 [7] [nM]	IC50 [8] [nM]
O=C1Cc2ccc(-c3noc([C@H]4CCCCN4C(=O)COc4ccccc4)n3)cc2N1	> 100000	> 100000	> 100000	13 (≈ 31.1 µM)	2.63	1.46	102	95.9
NC(=O)c1cccc(-c2noc([C@H]3CCCCN3C(=O)COc3ccccc3)n2)c1	72300	16700	45700	42 (≈ 103 µM)	2.57	2.55	156	40.8
O=C(COc1ccccc1)N1CCCC[C@@H]1c1nc(-c2ccc(S(=O)(=O)NCCO)cc2)no1	> 100000	13400	49300	65 (≈ 134 µM)	2.29	2.27	406	60.8
O=C(c1cc(-c2noc([C@H]3CCCCN3C(=O)COc3ccccc3)n2)ccn1)N1CCOCC1	> 100000	> 100000	89700	> 523	1.75	5.89	899	80.4
O=C(COc1ccccc1)N1CCCC[C@@H]1c1nc(-c2ccc(-c3cnc[nH]3)cc2)no1	> 100000	41800	39800	8 (≈ 18.6 µM)	1.98	0.261	239	164
Nc1cccc(-c2n[nH]c([C@H]3CCCCN3C(=O)COc3ccccc3)n2)c1	> 100000	> 100000	> 100000	71 (≈ 188 µM)	2.42	5.37	815	109
CC(=O)Nc1cccc(-c2n[nH]c([C@H]3CCCCN3C(=O)COc3ccccc3)n2)c1	> 100000	98300	> 100000	136 (≈ 324 µM)	2.61	2.88	340	53.7
CS(=O)(=O)Nc1cccc(-c2n[nH]c([C@H]3CCCCN3C(=O)COc3ccccc3)n2)c1	> 100000	23900	82800	103 (≈ 226 µM)	2.27	2.56	175	146
NC(=O)c1cccc(-c2n[nH]c([C@H]3CCCCN3C(=O)COc3ccccc3)n2)c1	> 100000	> 100000	> 100000	161 (≈ 397 µM)	2.16	2.25	563	93.1
O=C(O)c1ccc(C(=O)Nc2nn(Cc3ccc(OC(F)F)cc3)c3ccc(F)cc23)cc1	628	> 100000	> 100000	70 (≈ 154 µM)	0.92	3.15	514	156
